Reference: patent publication US7517857B2, “Immune-modulating peptide” (POSCO, priority 2002, dated 2009)
Entries after “also recorded” stand apart in the source; their conditions may differ. Where a SMILES comes first, the peptide text is derived from it. Where no end group is shown, it is not given here. [ ]: non-standard residue; d: D form.

Columns and labels:
Format in all cases: cell-based
FPR [1] = biological target: T1, FPR (Homo sapiens, UniProt P21462); assay: Exocytosis: β-hexosaminidase secretion in FPR-expressing RBL-2H3 cells; settings: for granule secretion / β-hexosaminidase release (words): FPR cells, 10 μM of each peptide (WKYMVm also various concentrations)
T1 construct: expressed in transfected cells; host or cells: RBL-2H3 (rat basophilic leukemia) cells, G418-selected
T1 sequence (P21462 1-350): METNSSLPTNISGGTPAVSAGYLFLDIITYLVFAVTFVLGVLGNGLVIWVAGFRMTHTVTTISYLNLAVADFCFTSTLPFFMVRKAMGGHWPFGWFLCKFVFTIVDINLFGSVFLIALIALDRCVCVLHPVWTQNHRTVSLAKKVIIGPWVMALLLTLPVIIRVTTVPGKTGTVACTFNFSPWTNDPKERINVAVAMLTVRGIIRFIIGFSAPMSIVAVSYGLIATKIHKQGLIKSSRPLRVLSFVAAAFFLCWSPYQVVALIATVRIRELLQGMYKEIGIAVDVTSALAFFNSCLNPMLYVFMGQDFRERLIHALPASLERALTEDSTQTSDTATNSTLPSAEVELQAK
Experimental: (§1) Granule secretion is one of the most important function of mast cells (20). The effect of WKYMVm on granule secretion was checked by measuring β-hexosaminidase secretion as described above (18). Briefly, RBL-2H3 cells (2×10^5/well) expressing FPR or FPRL1 were cultured overnight in a 24-well tissue culture plate. The cells were washed twice with Tyrode's buffer (137 mM NaCl, 12 mM NaHCO3, 5.6 mM glucose, 2.7 mM KCl, 1 mM CaCl2, 0.5 mM MgCl2, 0.4 mM NaH2PO4, 0.1g/100 ml BSA, and 25 mM HEPES, pH 7.4) and stimulated with each peptide. Various concentrations of WKYMVm were treated in FPR- or FPRL1-expressing RBL-2H3 cells (FIG. 5A). 1 μM of WKYMVm was used to stimulate two cell lines in the absence or presence of 10 μM BAPTA/AM (FIG. 5B). The reaction was terminated 20 min after stimulation by placing the plate on ice. Secretion of β-hexosaminidase into the medium was determined by incubating 50 μl of supernatant or cell lysate with 25 μl of 5 mM p-nitrophenyl-N-acetyl-β-D-glucosamide in 0.1 M sodium citrate buffer (pH 3.8) at 37° C. for 2 hr. At the end of the incubation, 50 μl of 0.4 M Na2CO3 were added. Absorbance was monitored at 405 nm. Data are means ±S.E. of a single representative of three experiments performed in triplicate. Values (means ±S.E.) were expressed as a percent of total β-hexosaminidase present in the cells.
From the new finding that cytosolic calcium release was induced by WKYMVm and many of the substituted peptides of WKYMVm but not by some of them (WKGMVm (SEQ ID NO: 1), WKRMVm (SEQ ID NO: 11), D-Met^6 substituted peptides), the effect of the peptides on granule secretion in RBL cells was checked. 10 μM of each peptide was treated in FPR- (FIG. 6A) or FPRL1-expressing RBL-2H3 cells (FIG. 6B). The peptide-induced secretion of β-hexosaminidase was determined as above. Data are means ±S.E. of a single representative of three experiments performed in triplicate.

FPR [2] = biological target: T1, FPR; assay: Akt phosphorylation in FPR-expressing RBL-2H3 cells (immunoblot); settings: 10 μM peptides 2 min (WKYMVm time course 1 μM)
Experimental: It is well known that activation of chemoattractant receptors induces Akt activation via PI3K (19). Stimulation of cells with the peptides, electrophoresis and immunoblot analysis were performed according to the same method as in Example 5.
FPR- or FPRL1-expressing RBL-2H3 cells were stimulated with 1 μM WKYMVm for various periods of time (FIG. 4A). Two cells were preincubated with a vehicle or 100 ng/ml of PTX (24 hr), 50 μM of LY294002 (15 min), 5 μM of GFX (15 min), 10 μM BAPTA/AM (60min), or 50 μM PD98059 (60 min) prior to treatment with 1 μM of WKYMVm (FIG. 4B). FPR- and FPRL1-expressing RBL2H3 cells were stimulated with 10 μM of WKYMVm and the present peptides for 2 min or 5 min, respectively (FIG. 4C). Each sample (30 μg of protein) was subjected to 10% SDS-PAGE and phosphorylated Akt was determined by immunoblot analysis with an anti-phospho-Akt antibody. A western blot analysis with an anti-Akt antibody was performed to confirm that the same amounts of samples were used for the experiments. The results are shown FIGS. 4A to 4C. Results of FIGS. 4A to 4C are the representative of 3 independent experiments.

human neutrophils = assay: Superoxide generation in human neutrophils (cytochrome c reduction); settings: for O^2− (nmol/10^6 cells), superoxide generation: cytochrome c reduction
Procedure, shortened: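 Neutrophils isolated from donor leukocyte concentrates by dextran sedimentation, hypotonic erythrocyte lysis and lymphocyte separation gradient; 1×10^6 cells in RPMI 1640 preincubated 1 min at 37° C with 50 μM cytochrome c, then peptide added. Superoxide quantified as cytochrome c reduction, absorbance change at 550 nm over 5 min at 1-min intervals; ≥4 independent experiments.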

FPRL1 = biological target: T2, FPRL1 (Homo sapiens, UniProt P25090); assay: Exocytosis: β-hexosaminidase secretion in FPRL1-expressing RBL-2H3 cells; settings: for granule secretion / β-hexosaminidase release (words): FPRL1 cells, 10 μM of each peptide (WKYMVm also various concentrations)
T2 construct: expressed in transfected cells; host or cells: RBL-2H3 (rat basophilic leukemia) cells, G418-selected
T2 sequence (P25090 1-351): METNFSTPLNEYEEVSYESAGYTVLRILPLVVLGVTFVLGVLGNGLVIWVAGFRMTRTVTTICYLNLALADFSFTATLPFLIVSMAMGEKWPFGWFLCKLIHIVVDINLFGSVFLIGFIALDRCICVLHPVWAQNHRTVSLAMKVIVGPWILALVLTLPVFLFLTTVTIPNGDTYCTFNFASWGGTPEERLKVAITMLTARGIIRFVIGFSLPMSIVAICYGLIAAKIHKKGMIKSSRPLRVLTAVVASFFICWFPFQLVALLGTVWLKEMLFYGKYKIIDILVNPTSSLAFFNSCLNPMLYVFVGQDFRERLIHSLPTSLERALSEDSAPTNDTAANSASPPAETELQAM
Experimental: as §1
10 μM of each peptide was treated in FPR- (FIG. 6A) or FPRL1-expressing RBL-2H3 cells (FIG. 6B). The peptide-induced secretion of β-hexosaminidase was determined as above. Data are means ±S.E. of a single representative of three experiments performed in triplicate.

Compound	Akt phosphorylation (FPR [2])	granule secretion / β-hexosaminidase release (words) (FPRL1)	granule secretion / β-hexosaminidase release (words) (FPR [1])	O^2− (nmol/10^6 cells), superoxide generation (human neutrophils; peptide 100 nM)	O^2− (nmol/10^6 cells), superoxide generation (human neutrophils; peptide 10 μM)	concentration showing maximal β-hexosaminidase release (FPR [1]; FPR-expressing RBL-2H3 cells)	concentration showing the maximal activity on superoxide generation (human neutrophils; data not shown)	O^2− (nmol/10^6 cells), superoxide generation (human neutrophils; peptide 100 nM, listed as wkymvm-NH2)	O^2− (nmol/10^6 cells), superoxide generation (human neutrophils; peptide 10 μM, listed as wkymvm-NH2)	concentration showing maximal β-hexosaminidase release (FPRL1; FPRL1-expressing RBL-2H3 cells)	granule secretion / β-hexosaminidase release (words) (FPRL1; listed as WKYMVm)	granule secretion / β-hexosaminidase release (words) (FPRL1; listed as wkymvm)
CSCC[C@H](NC(=O)CNC(=O)[C@H](CCCCN)NC(=O)[C@@H](N)Cc1c[nH]c2ccccc12)C(=O)N[C@H](C(=O)N[C@H](CCSC)C(N)=O)C(C)C [WKGMVm-NH2, Trp-Lys-Gly-Met-Val-D-Met-NH2] (H-WKGMV[dM]-NH2; N-terminus assumed)	caused Akt phosphorylation	stimulated granule secretion	could not effect granule secretion	14.2 ± 3.42 nmol/10^6 cells	37.6 ± 4.57 nmol/10^6 cells							
CSCC[C@H](NC(=O)[C@H](CCCNC(=N)N)NC(=O)[C@H](CCCCN)NC(=O)[C@@H](N)Cc1c[nH]c2ccccc12)C(=O)N[C@H](C(=O)N[C@H](CCSC)C(N)=O)C(C)C [WKRMVm-NH2, Trp-Lys-Arg-Met-Val-D-Met-NH2] (H-WKRMV[dM]-NH2; N-terminus assumed)	caused Akt phosphorylation	stimulated granule secretion	could not effect granule secretion	15.9 ± 2.48 nmol/10^6 cells	41.7 ± 8.32 nmol/10^6 cells							
CSCC[C@H](NC(=O)[C@H](Cc1ccc(O)cc1)NC(=O)[C@H](CCCCN)NC(=O)[C@@H](N)Cc1c[nH]c2ccccc12)C(=O)N[C@H](C(=O)N[C@H](CCSC)C(N)=O)C(C)C [WKYMVm-NH2, Trp-Lys-Tyr-Met-Val-D-Met-NH2, reference compound]	caused Akt phosphorylation		caused β-hexosaminidase release in a concentration-dependent manner	37.3 ± 6.94 nmol/10^6 cells	39.0 ± 3.58 nmol/10^6 cells	100 nM	100 nM	0 nmol/10^6 cells	0 nmol/10^6 cells	10 nM	caused β-hexosaminidase release in a concentration-dependent manner; also recorded: stimulated granule secretion	but not fMLF or wkymvm, stimulated granule secretion

More lines, main results first:

Akt phosphorylation (FPR [2])	granule secretion / β-hexosaminidase release (words) (FPRL1)	Compound	granule secretion / β-hexosaminidase release (words) (FPR [1])	O^2− (nmol/10^6 cells), superoxide generation (human neutrophils; peptide 100 nM)	O^2− (nmol/10^6 cells), superoxide generation (human neutrophils; peptide 10 μM)	concentration showing maximal β-hexosaminidase release (FPR [1]; FPR-expressing RBL-2H3 cells)	concentration showing the maximal activity on superoxide generation (human neutrophils; data not shown)	O^2− (nmol/10^6 cells), superoxide generation (human neutrophils; peptide 100 nM, listed as wkymvm-NH2)	O^2− (nmol/10^6 cells), superoxide generation (human neutrophils; peptide 10 μM, listed as wkymvm-NH2)	concentration showing maximal β-hexosaminidase release (FPRL1; FPRL1-expressing RBL-2H3 cells)	granule secretion / β-hexosaminidase release (words) (FPRL1; listed as WKYMVm)	granule secretion / β-hexosaminidase release (words) (FPRL1; listed as wkymvm)
caused Akt phosphorylation	stimulated granule secretion	WKYMVE-NH2 [WKYMVE-NH2, Trp-Lys-Tyr-Met-Val-Glu-NH2]		5.0 ± 0.43 nmol/10^6 cells	33.6 ± 6.43 nmol/10^6 cells							
caused Akt phosphorylation	stimulated granule secretion	WKYMVR-NH2 [WKYMVR-NH2, Trp-Lys-Tyr-Met-Val-Arg-NH2]		16.3 ± 1.57 nmol/10^6 cells	44.8 ± 3.65 nmol/10^6 cells							
